From paper PMC10906926 (Science Advances, 2024)

System: DIO mice
Test: Weight loss recovery of mPD5 relative to liraglutide
Format: in vivo
Conditions: 0.09 mg kg−1 s.c. once daily for 9 days

liraglutide
Weight regain upon treatment cessation: promptly initiated weight regain upon treatment cessation
